How the values were obtained:
HAdV5-GFP = assay: Plaque assay, HAdV5-GFP in 293β5 cells; assay type: cell-based; settings: read-out: Percentage of plaque formation inhibition, HAdV5-GFP, 10 μM, 293β5 cell line
Experimental: 1.5. Plaque assay. For low MOI infections, active compounds were further evaluated in a plaque assay. 293β5 cells were seeded in 6-well plates at 4×10^5 cells per well in duplicate for each condition. When cells reached 80-90% confluency, they were infected with HAdV5-GFP or HAdV16-GFP (0.06 vp/cell) and rocked for 2 h at 37° C. The inoculum was removed and the cells were washed once with PBS. The cells were then carefully overlaid with 4 ml/well of equal parts of 1.6% […] Difco Agar Noble (Becton, Dickinson & Co, Sparks, MD) and 2× EMEM (BioWhittaker) supplemented with 2x penicillin/streptomycin, 2× L-glutamine and 10% FBS. The mixture also contained compound in concentrations ranging from 5 to 1 μM. Following incubation for 7 days at 37° C., plates were scanned with a Typhoon 9410 imager (GE Healthcare Life Sciences), and plaques were quantified with ImageJ.43
For the plaque assay 293β5 cells were infected with HAdV5-GFP (in the presence of compound at 10 μM) (Table 2). From this generation of compounds, our primary screening identified 4 compounds (12, 13, 22 and 25) that inhibited HAdV5-GFP plaque formation >90% compared to a control with the same volume of DMSO.

[1] = Cytotoxicity assay (alamarBlue cell viability); assay type: cell-based, Human; settings: human, A549 cells
Experimental: 1.4. Cytotoxicity assay. The cytotoxicity of the compounds was measured using the AlarmBlue cell viability assay (Invitrogen) according to the manufacturer's instructions. Actively dividing A549 cells were incubated with compounds for 48 h. After the incubation the alamarBlue reagent was added to the cells ( 1/10th alamarBlue reagent in culture medium) for an extra 4 h. The 50% cell cytotoxic concentration (CC50) of the molecules was calculated according to Cheng et al.42 The selectivity index (SI) was evaluated as the ratio of CC50 to IC50, where the IC50 is defined as the concentration of compound that inhibits HAdV infection by 50%.

Compound	inhibition at 10 µM (HAdV5-GFP) [%]	melting point [°C]	CC50 at 48 h ([1]; 48 h) [µM]	CC50 at 48 h [1] [µM]
CC1CN(C(=O)OC(C)(C)C)CCN1C(=O)c1ccc([N+](=O)[O-])cc1 (stereo not shown) [Compound 10, 4-tert-Butoxycarbonyl-2-methyl-1-(4-nitrobenzoyl)piperazine]	33.6 ± 2.17	115 to 117		
COc1ccc(C(=O)N2CCN(C(=O)OC(C)(C)C)CC2C)cc1 (stereo not shown) [Compound 11, 4-tert-Butoxycarbonyl-1-(4-methoxybenzoyl)-2-methylpiperazine]	33.8 ± 4.02	84 to 87		
CC1CN(C(=O)C(C)(C)C)CCN1C(=O)c1ccc([N+](=O)[O-])cc1 (stereo not shown) [Compound 15, 2-Methyl-1-(4-nitrobenzoyl)-4-pivaloylpiperazine]	23.1 ± 3.71	143 to 145		
COc1ccc(C(=O)N2CCN(C(=O)C(C)(C)C)CC2C)cc1 (stereo not shown) [Compound 16, 1-(4-Methoxybenzoyl)-2-methyl-4-pivaloylpiperazine]	0	96 to 97		
CC1CN(C(=O)c2ccccc2)CCN1C(=O)c1ccc([N+](=O)[O-])cc1 (stereo not shown) [Compound 20, 4-Benzoyl-2-methyl-1-(4-nitrobenzoyl)piperazine]	0	103 to 105		
COc1ccc(NC(=O)N2CCN(C(=O)c3cc4ccccc4o3)CC2C)cc1 (stereo not shown) [Compound 26, 4-(Benzofuran-2-carbonyl)-1-[(4-methoxyphenyl)aminocarbonyl]-2-methylpiperazine]	33.6 ± 14.7	170 to 172		
CC1CN(C(=O)OC(C)(C)C)CCN1C(=O)Nc1ccccc1[N+](=O)[O-] (stereo not shown) [Compound 29, 4-tert-Butoxycarbonyl-2-methyl-1-[(2-nitrophenyl)aminocarbonyl]piperazine]	50 ± 2.75	199 to 201		
CC1CN(C(=O)OC(C)(C)C)CCN1C(=O)Nc1cc(C(F)(F)F)ccc1Cl (stereo not shown) [Compound 30, 4-tert-Butoxycarbonyl-1-[(2-chloro-5-trifluoromethylphenyl)aminocarbonyl]-2-methylpiperazine]	91 to 100	98 to 100	63.5 ± 8.22	
CC1CN(C(=O)OC(C)(C)C)CCN1C(=O)Nc1ccc(Cl)c(C(F)(F)F)c1 (stereo not shown) [Compound 31, 4-tert-Butoxycarbonyl-1-[(4-chloro-3-trifluoromethylphenyl)aminocarbonyl]-2-methylpiperazine]	91 to 100	157 to 159	20.8 ± 0.64	
CC1CN(C(=O)c2cc3ccccc3o2)CCN1C(=O)Nc1ccc(F)cc1 (stereo not shown) [Compound 35, 4-(Benzofuran-2-carbonyl)-1-[(4-fluorophenyl)aminocarbonyl]-2-methylpiperazine]	91 to 100	93 to 95	221 ± 29	> 200
CC1CN(C(=O)c2cc3ccccc3o2)CCN1C(=O)Nc1ccccc1F (stereo not shown) [Compound 37, 4-(Benzofuran-2-carbonyl)-1-[(2-fluorophenyl)aminocarbonyl]-2-methylpiperazine]	50.9 ± 4.13	127 to 129		
CC1CN(C(=O)c2cc3ccccc3o2)CCN1C(=O)Nc1ccc(F)cc1F (stereo not shown) [Compound 39, 4-(Benzofuran-2-carbonyl)-1-[(2,4-difluorophenyl)aminocarbonyl]-2-methylpiperazine]	34.2 ± 13.6	163 to 165		
CC(C)(C)OC(=O)N1CCN(C(=O)Nc2ccccc2[N+](=O)[O-])C(c2ccccc2)C1 (stereo not shown) [Compound 51, 4-tert-Butoxycarbonyl-1-[(2-nitrophenyl)aminocarbonyl]-2-phenylpiperazine]	100		82.2 ± 9.06	
CC(C)(C)OC(=O)N1CCN(C(=O)Nc2cc(C(F)(F)F)ccc2Cl)C(c2ccccc2)C1 (stereo not shown) [Compound 52, 4-tert-Butoxycarbonyl-1-[(2-chloro-5-trifluoromethylphenyl)aminocarbonyl]-2-phenylpiperazine]	100		93.36 ± 0.73	
CC(C)(C)OC(=O)N1CCN(C(=O)Nc2ccc(Cl)c(C(F)(F)F)c2)C(c2ccccc2)C1 (stereo not shown) [Compound 53, 4-tert-Butoxycarbonyl-1-[(4-chloro-3-trifluoromethylphenyl)aminocarbonyl]-2-phenylpiperazine]	100		27.5	
COc1ccc(NC(=O)N2CCN(C(=O)OC(C)(C)C)CC2c2ccccc2)cc1 (stereo not shown) [Compound 54, 4-tert-Butoxycarbonyl-1-[(4-methoxyphenyl)aminocarbonyl]-2-phenylpiperazine]	78.9 ± 1.57		133 ± 58.8	
Cc1ccc(NC(=O)N2CCN(C(=O)OC(C)(C)C)CC2c2ccccc2)cc1 (stereo not shown) [Compound 55, 4-tert-Butoxycarbonyl-1-[(4-methylphenyl)aminocarbonyl]-2-phenylpiperazine]	63.02 ± 0.2		165 ± 17.4	
CC(C)(C)C(=O)N1CCN(C(=O)Nc2ccc([N+](=O)[O-])cc2)C(c2ccccc2)C1 (stereo not shown) [Compound 56, 1-[(4-Nitrophenyl)aminocarbonyl]-2-phenyl-4-pivaloylpiperazine]	43.8 ± 13.2		102 ± 8.38	
CC(C)(C)C(=O)N1CCN(C(=O)Nc2ccc(C#N)cc2)C(c2ccccc2)C1 (stereo not shown) [Compound 57, 1-[(4-Cyanophenyl)aminocarbonyl]-2-phenyl-4-pivaloylpiperazine]	84 ± 6.75	151 to 153	147 ± 38	
COc1ccc(NC(=O)N2CCN(C(=O)C(C)(C)C)CC2c2ccccc2)cc1 (stereo not shown) [Compound 58, 1-[(4-Methoxyphenyl)aminocarbonyl]-2-phenyl-4-pivaloylpiperazine]	70.1 ± 2.7	62 to 65	199 ± 33.6	
O=C(c1cc2ccccc2o1)N1CCN(C(=O)Nc2ccc(C(F)(F)F)cc2)C(c2ccccc2)C1 (stereo not shown) [Compound 61, 4-(Benzofuran-2-carbonyl)-2-phenyl-1-[(4-trifluoromethylphenyl)aminocarbonyl]piperazine]	100	134 to 136	70.7 ± 21.4	
O=C(c1cc2ccccc2o1)N1CCN(C(=O)Nc2ccc(F)cc2)C(c2ccccc2)C1 (stereo not shown) [Compound 62, 4-(Benzofuran-2-carbonyl)-1-[(4-fluorophenyl)aminocarbonyl]-2-phenylpiperazine]	98.81 ± 0.15	122 to 124	12.5 ± 0.79	
